Reference: publication PMC9416303, “Two New Picoline-Derived Meroterpenoids with Anti-Acetylcholinesterase Activity from Ascidian-Derived Fungus Amphichorda felina” (Molecules, 2022)

Biological target: acetylcholinesterase (AChE) (Electrophorus electricus, UniProt O42275)
Experiment: modified Ellman's colorimetric assay, commercial AChE (Sigma C3389)
Format: biochemical

Sequence of acetylcholinesterase (AChE) (O42275 24-633): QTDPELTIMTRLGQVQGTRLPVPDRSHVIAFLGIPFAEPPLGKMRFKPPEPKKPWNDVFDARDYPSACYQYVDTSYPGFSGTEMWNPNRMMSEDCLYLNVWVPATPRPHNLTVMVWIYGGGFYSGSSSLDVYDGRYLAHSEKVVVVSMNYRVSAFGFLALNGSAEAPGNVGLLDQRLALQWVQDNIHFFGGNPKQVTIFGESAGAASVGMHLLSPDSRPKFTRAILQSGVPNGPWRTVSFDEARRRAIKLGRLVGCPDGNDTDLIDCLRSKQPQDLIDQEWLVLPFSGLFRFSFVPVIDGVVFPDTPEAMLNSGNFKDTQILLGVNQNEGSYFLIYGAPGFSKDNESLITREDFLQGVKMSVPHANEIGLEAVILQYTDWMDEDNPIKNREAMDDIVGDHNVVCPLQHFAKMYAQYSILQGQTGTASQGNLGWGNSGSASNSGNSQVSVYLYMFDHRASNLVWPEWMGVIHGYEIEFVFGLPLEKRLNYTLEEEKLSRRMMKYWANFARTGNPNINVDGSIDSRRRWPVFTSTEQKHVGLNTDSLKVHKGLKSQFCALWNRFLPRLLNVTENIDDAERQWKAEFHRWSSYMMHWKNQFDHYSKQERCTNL

In the case of `C[C@@H]1COC(c2cc3c(cn2)OC(C)(C)[C@H](O)C3)=CC1=O` [compound 2, Amphichoterpenoid E], the IC50 is reported as 11.6 µM.

Work on `C[C@H]1COC(c2cc3c(cn2)OC(C)(C)[C@H](O)C3)=CC1=O` [compound 1, Amphichoterpenoid D] yielded an IC50 of 12.5 µM.
